Results from patent publication US10758534B2 (Vertex Pharmaceuticals Incorporated, priority 2014, dated 2020).
Like-named read-outs stand apart in the source and are kept apart here.

Target: T1, F508del (Homo sapiens, UniProt P13569, DEL508-508)
T1 construct: expressed in transfected cells
Assay: Protocol 2: FRET membrane potential optical assay (VIPR), identification of correction compounds
Format: cell-based
Excerpt: Membrane potential optical methods for assaying F508del modulation properties of compounds.
These voltage sensitive assays are based on the change in fluorescence resonant energy transfer (FRET) between the membrane-soluble, voltage-sensitive dye, DiSBAC2(3), and a fluorescent phospholipid, CC2-DMPE, which is attached to the outer leaflet of the plasma membrane and acts as a FRET donor. Changes in membrane potential (Vm) cause the negatively charged DiSBAC2(3) to redistribute across the plasma membrane and the amount of energy transfer from CC2-DMPE changes accordingly. The changes in fluorescence emission were monitored using VIPR™ II, which is an integrated liquid handler and fluorescent detector designed to conduct cell-based screens in 96- or 384-well microtiter plates.
To identify small molecules that correct the trafficking defect associated with F508del; a single-addition HTS assay format was developed. The cells were incubated in serum-free medium for 16 hrs at 37° C. in the presence or absence (negative control) of test compound. As a positive control, cells plated in 384-well plates were incubated for 16 hrs at 27° C. to “temperature-correct” F508del. The cells were subsequently rinsed 3× with Krebs Ringers solution and loaded with the voltage-sensitive dyes. To activate F508del, 10 μM forskolin and the CFTR potentiator, genistein (20 μM), were added along with Cl^−-free medium to each well. The addition of Cl^−-free medium promoted Cl^− efflux in response to F508del activation and the resulting membrane depolarization was optically monitored using the FRET-based voltage-sensor dyes.
• Bath Solution #1: (in mM) NaCl 160, KCl 4.5, CaCl2 2, MgCl2 1, HEPES 10, pH 7.4 with NaOH. • Chloride-free bath solution: Chloride salts in Bath Solution #1 (above) are substituted with gluconate salts. • CC2-DMPE: Prepared as a 10 mM stock solution in DMSO and stored at −20° C. • DiSBAC2(3): Prepared as a 10 mM stock in DMSO and stored at −20° C. Cell Culture
NIH3T3 mouse fibroblasts stably expressing F508del are used for optical measurements of membrane potential. The cells are maintained at 37° C. in 5% CO2 and 90% humidity in Dulbecco's modified Eagle's medium supplemented with 2 mM glutamine, 10% fetal bovine serum, 1×NEAA, β-ME, 1× pen/strep, and 25 mM HEPES in 175 cm^2 culture flasks. For all optical assays, the cells were seeded at 30,000/well in 384-well matrigel-coated plates and cultured for 2 hrs at 37° C. before culturing at 27° C. for 24 hrs for the potentiator assay. For the correction assays, the cells are cultured at 27° C. or 37° C. with and without compounds for 16-24 hours.

[1] = Table 3, compounds of Table 1 as modulators of CFTR activity, protocol not stated
[2] = F508del CFTR modulator activity, compounds of Table 1, read-out: EC30

T1 sequence (P13569 with tags, fused parts or gaps DEL508-508): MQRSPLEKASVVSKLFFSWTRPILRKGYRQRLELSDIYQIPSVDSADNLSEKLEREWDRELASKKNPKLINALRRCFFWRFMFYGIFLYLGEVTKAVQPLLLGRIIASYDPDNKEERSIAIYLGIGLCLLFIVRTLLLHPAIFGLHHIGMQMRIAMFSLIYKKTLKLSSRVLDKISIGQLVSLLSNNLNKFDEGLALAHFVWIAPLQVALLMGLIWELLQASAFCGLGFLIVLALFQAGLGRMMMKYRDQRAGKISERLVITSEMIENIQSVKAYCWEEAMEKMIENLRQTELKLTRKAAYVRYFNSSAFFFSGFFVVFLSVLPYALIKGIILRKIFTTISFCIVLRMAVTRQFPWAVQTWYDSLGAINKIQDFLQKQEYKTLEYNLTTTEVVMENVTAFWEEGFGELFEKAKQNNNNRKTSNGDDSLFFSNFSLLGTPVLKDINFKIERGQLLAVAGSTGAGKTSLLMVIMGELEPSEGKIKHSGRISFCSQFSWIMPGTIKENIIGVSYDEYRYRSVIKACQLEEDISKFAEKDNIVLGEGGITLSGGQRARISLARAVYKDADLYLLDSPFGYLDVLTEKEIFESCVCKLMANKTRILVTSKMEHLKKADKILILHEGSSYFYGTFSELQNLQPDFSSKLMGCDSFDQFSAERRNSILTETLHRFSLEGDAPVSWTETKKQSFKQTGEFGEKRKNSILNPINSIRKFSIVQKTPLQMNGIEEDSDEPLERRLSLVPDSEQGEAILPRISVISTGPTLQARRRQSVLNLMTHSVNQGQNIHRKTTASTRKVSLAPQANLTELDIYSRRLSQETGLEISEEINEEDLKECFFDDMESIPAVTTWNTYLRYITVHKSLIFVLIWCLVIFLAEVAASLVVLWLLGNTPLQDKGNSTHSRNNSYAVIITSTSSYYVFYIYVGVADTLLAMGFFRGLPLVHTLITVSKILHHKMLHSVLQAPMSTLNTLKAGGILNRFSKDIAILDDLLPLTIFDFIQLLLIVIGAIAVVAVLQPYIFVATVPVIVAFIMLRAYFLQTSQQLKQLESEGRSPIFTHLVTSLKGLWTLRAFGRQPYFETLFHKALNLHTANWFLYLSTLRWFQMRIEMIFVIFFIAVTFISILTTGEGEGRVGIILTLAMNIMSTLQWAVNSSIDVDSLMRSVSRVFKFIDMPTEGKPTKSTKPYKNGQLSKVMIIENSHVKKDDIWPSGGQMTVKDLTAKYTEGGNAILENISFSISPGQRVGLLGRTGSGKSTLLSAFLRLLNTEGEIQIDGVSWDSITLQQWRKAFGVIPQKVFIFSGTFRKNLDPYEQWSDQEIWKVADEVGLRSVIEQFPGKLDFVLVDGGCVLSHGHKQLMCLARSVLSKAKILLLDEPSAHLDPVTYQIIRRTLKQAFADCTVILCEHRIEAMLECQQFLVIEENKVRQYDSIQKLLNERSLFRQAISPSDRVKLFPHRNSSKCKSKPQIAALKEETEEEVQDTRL

Structure (SMILES)	EC30 [1]	EC30 [2] [nM]	other results
CC(C)COc1cccc(-c2ccc(C(=O)NS(=O)(=O)c3cccc(N)n3)c(N3CC(C)CC3(C)C)n2)c1 (stereo not drawn) [Compound 695, N-[(6-amino-2-pyridyl)sulfonyl]-6-(3-isobutoxyphenyl)-2-(2,2,4-trimethylpyrrolidin-1-yl)pyridine-3-carboxamide]	+++ (“+++” means <3 uM)	–	–
Cc1cccc(C)c1Cn1nc(-c2ccccc2N(C)C)cc1C(=O)NS(=O)(=O)c1ccccc1 [Compound 128, N-(benzenesulfonyl)-5-[2-(dimethylamino)phenyl]-2-[(2,6-dimethylphenyl)methyl]pyrazole-3-carboxamide]	+++ (“+++” means <3 uM)	–	–
CC(C)COc1cc(F)cc(-c2ccc(C(=O)NS(=O)(=O)c3cccc(N)n3)c(C3=CC(C)CC3(C)C)n2)c1 (single isomer, unassigned) [Compound 2081, N-[(6-amino-2-pyridyl)sulfonyl]-6-(3-fluoro-5-isobutoxy-phenyl)-2-(3,5,5-trimethylcyclopenten-1-yl)pyridine-3-carboxamide]	–	–	EC30 (F508del CFTR modulator activity, compounds of Table 1): +++ (“+++” means <3 uM)
Cc1ccc(Oc2nc(-c3cc(F)cc(OCC(C)C)c3)ccc2C(=O)NS(=O)(=O)c2cccc(N)n2)c(C)c1 [Compound 590, N-[(6-amino-2-pyridyl)sulfonyl]-2-(2,4-dimethylphenoxy)-6-(3-fluoro-5-isobutoxy-phenyl)pyridine-3-carboxamide]	+++ (“+++” means <3 uM)	–	–
Cn1ccc2cccc(Cn3nc(C(C)(C)C)cc3C(=O)NS(=O)(=O)c3cccc(N)c3)c21 [Compound 755, N-(3-aminophenyl)sulfonyl-5-tert-butyl-2-[(1-methylindol-7-yl)methyl]pyrazole-3-carboxamide]	++ (“++” means between 3 uM and 10 uM)	–	–
Cc1cc(C)c(Cn2c(C(=O)NS(=O)(=O)c3ccncc3)cc3ccccc32)c(C)c1 [Compound 227, N-(4-pyridylsulfonyl)-1-[(2,4,6-trimethylphenyl)methyl]indole-2-carboxamide]	++ (“++” means between 3 uM and 10 uM)	–	–

More lines, main results first:

EC30 [1]	EC30 [2] [nM]	Structure (SMILES)	other results
–	< 3000	CC(=O)c1cccc(Oc2cccc(S(=O)(=O)NC(=O)c3cccnc3N3CC(C)CC3(C)C)n2)c1 (stereo not drawn) [Compound 2569, N—[[6-(3-acetylphenoxy)-2-pyridyl]sulfonyl]-2-(2,2,4-trimethylpyrrolidin-1-yl)pyridine-3-carboxamide]	–
–	< 3000	CC1CN(c2ncccc2C(=O)NS(=O)(=O)c2cccc(OCc3ccccc3C(F)(F)F)n2)C(C)(C)C1 (stereo not drawn) [Compound 2261, N—[[6-[[2-(trifluoromethyl)phenyl]methoxy]-2-pyridyl]sulfonyl]-2-(2,2,4-trimethylpyrrolidin-1-yl)pyridine-3-carboxamide]	–
–	< 3000	CC1CN(c2ncccc2C(=O)NS(=O)(=O)c2cccc(Nc3cccc(C(F)(F)F)c3)n2)C(C)(C)C1 (stereo not drawn) [Compound 2381, N—[[6-[3-(trifluoromethyl)anilino]-2-pyridyl]sulfonyl]-2-(2,2,4-trimethylpyrrolidin-1-yl)pyridine-3-carboxamide]	–
–	3000 to 10000	Cc1cc(C)nc(Nc2cccc(S(=O)(=O)NC(=O)c3cccnc3N3CC(C)CC3(C)C)n2)c1 (stereo not drawn) [Compound 2160, N—[[6-[(4,6-dimethyl-2-pyridyl)amino]-2-pyridyl]sulfonyl]-2-(2,2,4-trimethylpyrrolidin-1-yl)pyridine-3-carboxamide]	–
–	< 3000	Cc1cc(C)cc(-c2cnc(N3CC(C)CC3(C)C)c(C(=O)NS(=O)(=O)c3cccc(N)n3)c2)c1 (stereo not drawn) [Compound 2093, N-[(6-amino-2-pyridyl)sulfonyl]-5-(3,5-dimethylphenyl)-2-(2,2,4-trimethylpyrrolidin-1-yl)pyridine-3-carboxamide]	–
–	< 3000	COc1cccc(-c2ccc(C(=O)NS(=O)(=O)c3ccccc3)c(N3C[C@@H](C)CC3(C)C)n2)n1 [Compound 2411, N-(benzenesulfonyl)-6-(6-methoxy-2-pyridyl)-2-[(4S)-2,2,4-trimethylpyrrolidin-1-yl]pyridine-3-carboxamide]	–
